Patent US20240010641A1, “N-Linked Glycosylation Inhibitors and Methods of Using Same” (YALE UNIVERSITY, priority 2020, published 2024)

Test system: N-linked glycosylation (OST) in CHO-ER-LucT cells
Test: CHO-ER-LucT luminescence assay for inhibition of N-linked glycosylation
Format: cell-based
Settings: for Emax: 24 h, [compound's fold change-1.0 (DMSO)]/[NGI-1 fold change-1.0 (DMSO)]*100, read-out: Max activity (% NGI-1); for AC50: CHO-ER-LucT cells, 24 hrs exposure, seven-point dose dilution, luminescence
Experimental: The CHO-ER-LucT cells have been previously described (Contessa et al., 2010, Clinical Cancer Research, 16(12):3205-14) and are used for testing analog IC50 for inhibition of N-linked glycosylation in 96 or 384 well plate format. In these cells induction of luminescence is dependent on inhibition of glycosylation (and OST inhibition), and is determined after 24 hrs of exposure to the analog following the addition of luciferin substrate. The luminescent signal is then quantified using standard plate readers that detect luminescence (e.g., Biotek synergy). Experiments are performed over a seven-point dose dilution to generate dose response data and to identify IC50 values and maximal activity compared to controls. Data is transformed to log 10 values to generate a sigmoidal shaped dose response curve and fitted using nonlinear regression (curve fit) in GraphPad Prism7.
All HL compounds were tested in CHO-ER-LucT cells. IC50 (AC50) was estimated in following method: Concentration X is converted to logarithm (log10) to generate sigmoidal shape curve and dose response curve is generated using Nonlinear regression (curve fit) in Prism. EC50 (AC50) is calculated using log(agonist) vs response-(three parameters)] which uses standard Hill slope (=1).
Max activity: [compound's fold change−1.0 (DMSO)]/[NGI−1 fold change−1.0 (DMSO)]*100(%) (Eq. 1)

| Structure (SMILES) | Emax | AC50 |
| --- | --- | --- |
| C=CCN(C)c1ccc(S(=O)(=O)N2CCOCC2)cc1C(=O)Nc1ncc(CC)s1 [Example 8, 2-(allyl(methyl)amino)-N-(5-ethylthiazol-2-yl)-5-(morpholinosulfonyl)benzamide] | 102% | 446 nM |
| Cc1nc(NC(=O)c2cc(S(=O)(=O)N3CCOCC3)ccc2N(C)C2CCCC2)sc1C [Example 9, 2-(cyclopentyl(methyl)amino)-N-(4,5-dimethylthiazol-2-yl)-5-(morpholinosulfonyl)benzamide] | 83.5% | 165 nM |
| Cc1nc(NC(=O)c2cc(S(=O)(=O)N3CCOCC3)ccc2N(C)CC2CC2)sc1C [Example 10, 2-((cyclopropylmethyl)(methyl)amino)-N-(4,5-dimethylthiazol-2-yl)-5-(morpholinosulfonyl)benzamide] | 88.7% | 128 nM |
| CCc1cnc(NC(=O)c2cc(S(=O)(=O)N(C)C)ccc2N(C)C2CCCCC2)s1 [Example 11, 2-(cyclohexyl(methyl)amino)-5-(N,N-dimethylsulfamoyl)-N-(5-ethylthiazol-2-yl)benzamide] | 52.9% | 248 nM |
| CCc1cnc(NC(=O)c2cc(S(=O)(=O)N(C)C)ccc2N(C)CC2CC2)s1 [Example 12, 2-((cyclopropylmethyl)(methyl)amino)-5-(N,N-dimethylsulfamoyl)-N-(5-ethylthiazol-2-yl)benzamide] | 133% | 77 nM |
| CCc1cnc(NC(=O)c2cc(S(=O)(=O)N(C)C)ccc2N(C)CC)s1 [Example 13, 5-(N,N-dimethylsulfamoyl)-2-(ethyl(methyl)amino)-N-(5-ethylthiazol-2-yl)benzamide] | 114% | 294 nM |
| CCc1cnc(NC(=O)c2cc(S(=O)(=O)N(C)C)ccc2N(C)C(C)C)s1 [Example 14, 5-(N,N-dimethylsulfamoyl)-N-(5-ethylthiazol-2-yl)-2-(isopropyl(methyl)amino)benzamide] | 128% | 372 nM |
| CCc1cnc(NC(=O)c2cc(S(=O)(=O)N(C)C)ccc2N(C)C2CCC2)s1 [Example 15, 2-(cyclobutyl(methyl)amino)-5-(N,N-dimethylsulfamoyl)-N-(5-ethylthiazol-2-yl)benzamide] | 141% | 252 nM |
| CCc1cnc(NC(=O)c2cc(S(=O)(=O)N(C)C)ccc2N(C)CC2CCC2)s1 [Example 16, 2-((cyclobutylmethyl)(methyl)amino)-5-(N,N-dimethylsulfamoyl)-N-(5-ethylthiazol-2-yl)benzamide] | 82.2% | 744 nM |
| Cc1cnc(NC(=O)c2cc(S(=O)(=O)N(C)C)ccc2N(C)C2CCCC2)s1 [Example 17, 2-(cyclopentyl(methyl)amino)-5-(N,N-dimethylsulfamoyl)-N-(5-methylthiazol-2-yl)benzamide] | 102% | 361 nM |
| CCc1cnc(NC(=O)c2cc(S(=O)(=O)N(C)Cc3ccccc3)ccc2N(C)CC2CC2)s1 [Example 18, 5-(N-benzyl-N-methylsulfamoyl)-2-((cyclopropylmethyl)(methyl)amino)-N-(5-ethylthiazol-2-yl)benzamide] | 71.2% | 266 nM |
| Cc1sc(NC(=O)c2cc(S(=O)(=O)N3CCOCC3)ccc2N(C)CC2CC2)nc1-c1ccccc1 [Example 19, 2-((cyclopropylmethyl)(methyl)amino)-N-(5-methyl-4-phenylthiazol-2-yl)-5-(morpholinosulfonyl)benzamide] | 66.2% | 563 nM |
| CCc1csc(NC(=O)c2cc(S(=O)(=O)N3CCOCC3)ccc2N(C)CC2CC2)n1 [Example 20, 2-((cyclopropylmethyl)(methyl)amino)-N-(4-ethylthiazol-2-yl)-5-(morpholinosulfonyl)benzamide] | 94.2% | 548 nM |
| Cc1nc(NC(=O)c2cc(S(=O)(=O)N(C)C)cnc2N(C)C2CCCC2)sc1C [Example 21, 2-(cyclopentyl(methyl)amino)-5-(N,N-dimethylsulfamoyl)-N-(4,5-dimethylthiazol-2-yl)nicotinamide] | 101% | 970 nM |
